Data from patent publication US20050256134A1, “Use of creatine analogues and creatine kinase modulators for the prevention and treatment of glucose metabolic disorders” (AVICENA GROUP, INC., priority 1995, published 2005).

Experiments:
terminal cancer patients = assay: Phase I/II open label dose escalation study, glucose levels, 3 hour continuous infusion; assay type: in vivo, human
Experimental: Cyclocreatine was tested in humans in a phase I/II open label dose escalation study. […] Cyclocreatine was administered at doses that ranged from 10 mg/Kg to 100 mg/Kg. The schedule of administration of cyclocreatine is described in Table 4.
Cohorts of 3 patients were administered drug at each dose level, via a 3 hour continuous infusion in one liter volume of saline. The first week patients received cyclocreatine once, the second week patients received cyclocreatine twice, the third week three times, the fourth week four times, the fifth week five times. On weeks six and seven, no drug was administered to allow the drug to wash out. On week eight, cyclocreatine was given five times. The study included a total of 23 patients (18 male, 5 female) with a median age of 71 years (range 54-85). The patients had different types of malignancies. Eligibility requirements included patients who have failed standard therapy or for whom no therapy was available, normal organ function, have recovered from prior therapies, probability of survival of greater than three months. Reasons for exclusion included: major surgery, life threatening concurrent illness and CNS metastasis. Blood samples were collected at baseline and 1 day before and after the last weekly drug administration on days 1, 7, 9, 14, 17, 21, 25, 28, 33, 40, 47, 49, 54, 61, and 69. Glucose levels were determined for these collected blood samples. […] Not all patients experienced a significant drop in glucose although the trend was there. FIGS. 14 and 15 illustrate graphically individual patients' glucose levels upon treatment with 60 mg/Kg or 80 mg/Kg cyclocreatine. Patient (A) at the 80 mg/Kg dose was diabetic and had many serious complications due to their disease. […] It should be noted that an insufficient number of readings was made shortly after drug administration. It is interesting to note that several patients who were diabetic or had higher glucose levels than normal did respond to cyclocreatine, onen example being illustrated in FIG. 16.

creatine kinase = details: forward reaction, in vitro and in vivo; cited from earlier work

SMILES: NC1=NCCN1CC(=O)O [cyclocreatine]
- patients with significant hypoglycemia (terminal cancer patients; 80 mg/Kg): 2 out of 3
- patients with significant hypoglycemia (terminal cancer patients; 100 mg/Kg): 2 out of 7
- Glucose (terminal cancer patients; Ave, 40 mg/Kg, Study Day 0): 125 mg/dL
- Glucose (terminal cancer patients; Ave, 40 mg/Kg, Study Day 1): 105 mg/dL
- Glucose (terminal cancer patients; Ave, 40 mg/Kg, Study Day 7): 119 mg/dL
- Glucose (terminal cancer patients; Ave, 40 mg/Kg, Study Day 9): 125 mg/dL
- Glucose (terminal cancer patients; Ave, 40 mg/Kg, Study Day 14): 129 mg/dL
- Glucose (terminal cancer patients; Ave, 40 mg/Kg, Study Day 17): 139 mg/dL
- Glucose (terminal cancer patients; Ave, 40 mg/Kg, Study Day 21): 112 mg/dL
- Glucose (terminal cancer patients; Ave, 40 mg/Kg, Study Day 25): 161 mg/dL
- Glucose (terminal cancer patients; Ave, 40 mg/Kg, Study Day 28): 122 mg/dL
- Glucose (terminal cancer patients; Ave, 40 mg/Kg, Study Day 33): 149 mg/dL
- Glucose (terminal cancer patients; Ave, 40 mg/Kg, Study Day 40): 104 mg/dL
- Glucose (terminal cancer patients; Ave, 40 mg/Kg, Study Day 47): 99 mg/dL
- Glucose (terminal cancer patients; Ave, 40 mg/Kg, Study Day 49): 128 mg/dL
- Glucose (terminal cancer patients; Ave, 40 mg/Kg, Study Day 54): 132 mg/dL
- Glucose (terminal cancer patients; Ave, 40 mg/Kg, Study Day 61): 105 mg/dL
- Glucose (terminal cancer patients; Ave, 40 mg/Kg, Study Day 69): 119 mg/dL
- Glucose (terminal cancer patients; Ave, 60 mg/Kg, Study Day 7): 37 mg/dL
- Glucose (terminal cancer patients; Patient 2, 7, 40 mg/Kg, Study Day 0): 115 mg/dL
- Glucose (terminal cancer patients; Patient 2, 7, 40 mg/Kg, Study Day 1): 95 mg/dL
- Glucose (terminal cancer patients; Patient 2, 7, 40 mg/Kg, Study Day 7): 153 mg/dL
- Glucose (terminal cancer patients; Patient 2, 7, 40 mg/Kg, Study Day 9): 123 mg/dL
- Glucose (terminal cancer patients; Patient 2, 7, 40 mg/Kg, Study Day 14): 102 mg/dL
- Glucose (terminal cancer patients; Patient 2, 7, 40 mg/Kg, Study Day 17): 117 mg/dL
- Glucose (terminal cancer patients; Patient 2, 7, 40 mg/Kg, Study Day 21): 104 mg/dL
- Glucose (terminal cancer patients; Patient 2, 7, 40 mg/Kg, Study Day 25): 122 mg/dL
- Glucose (terminal cancer patients; Patient 2, 7, 40 mg/Kg, Study Day 28): 154 mg/dL
- Glucose (terminal cancer patients; Patient 2, 8, 40 mg/Kg, Study Day 0): 222 mg/dL
- Glucose (terminal cancer patients; Patient 2, 8, 40 mg/Kg, Study Day 1): 116 mg/dL
- Glucose (terminal cancer patients; Patient 2, 8, 40 mg/Kg, Study Day 9): 148 mg/dL
- Glucose (terminal cancer patients; Patient 2, 8, 40 mg/Kg, Study Day 14): 184 mg/dL
- Glucose (terminal cancer patients; Patient 2, 8, 40 mg/Kg, Study Day 17): 251 mg/dL
- Glucose (terminal cancer patients; Patient 2, 8, 40 mg/Kg, Study Day 25): 278 mg/dL
- Glucose (terminal cancer patients; Patient 2, 8, 40 mg/Kg, Study Day 33): 244 mg/dL
- Glucose (terminal cancer patients; Patient 2, 8, 40 mg/Kg, Study Day 40): 139 mg/dL
- Glucose (terminal cancer patients; Patient 2, 8, 40 mg/Kg, Study Day 49): 129 mg/dL
- Glucose (terminal cancer patients; Patient 2, 8, 40 mg/Kg, Study Day 54): 195 mg/dL
- Glucose (terminal cancer patients; Patient 2, 8, 40 mg/Kg, Study Day 69): 205 mg/dL
- Glucose (terminal cancer patients; Patient 2, 9, 40 mg/Kg, Study Day 0): 98 mg/dL
- Glucose (terminal cancer patients; Patient 2, 9, 40 mg/Kg, Study Day 1): 87 mg/dL
- Glucose (terminal cancer patients; Patient 2, 9, 40 mg/Kg, Study Day 7): 117 mg/dL
- Glucose (terminal cancer patients; Patient 2, 9, 40 mg/Kg, Study Day 9): 148 mg/dL
- Glucose (terminal cancer patients; Patient 2, 9, 40 mg/Kg, Study Day 14): 126 mg/dL
- Glucose (terminal cancer patients; Patient 2, 9, 40 mg/Kg, Study Day 17): 139 mg/dL
- Glucose (terminal cancer patients; Patient 2, 9, 40 mg/Kg, Study Day 21): 90 mg/dL
- Glucose (terminal cancer patients; Patient 2, 9, 40 mg/Kg, Study Day 25): 114 mg/dL
- Glucose (terminal cancer patients; Patient 2, 9, 40 mg/Kg, Study Day 28): 87 mg/dL
- Glucose (terminal cancer patients; Patient 2, 9, 40 mg/Kg, Study Day 33): 121 mg/dL
- Glucose (terminal cancer patients; Patient 2, 9, 40 mg/Kg, Study Day 40): 92 mg/dL
- Glucose (terminal cancer patients; Patient 2, 9, 40 mg/Kg, Study Day 47): 105 mg/dL
- Glucose (terminal cancer patients; Patient 2, 9, 40 mg/Kg, Study Day 49): 132 mg/dL
- Glucose (terminal cancer patients; Patient 2, 9, 40 mg/Kg, Study Day 54): 105 mg/dL
- Glucose (terminal cancer patients; Patient 2, 9, 40 mg/Kg, Study Day 61): 104 mg/dL
- Glucose (terminal cancer patients; Patient 2, 9, 40 mg/Kg, Study Day 69): 92 mg/dL
- Glucose (terminal cancer patients; Patient 8, 40 mg/Kg, Study Day 0): 94 mg/dL
- Glucose (terminal cancer patients; Patient 8, 40 mg/Kg, Study Day 1): 114 mg/dL
- Glucose (terminal cancer patients; Patient 8, 40 mg/Kg, Study Day 7): 96 mg/dL
- Glucose (terminal cancer patients; Patient 8, 40 mg/Kg, Study Day 9): 115 mg/dL
- Glucose (terminal cancer patients; Patient 8, 40 mg/Kg, Study Day 14): 87 mg/dL
- Glucose (terminal cancer patients; Patient 8, 40 mg/Kg, Study Day 17): 91 mg/dL
- Glucose (terminal cancer patients; Patient 8, 40 mg/Kg, Study Day 21): 103 mg/dL
- Glucose (terminal cancer patients; Patient 8, 40 mg/Kg, Study Day 25): 96 mg/dL
- Glucose (terminal cancer patients; Patient 8, 40 mg/Kg, Study Day 28): 125 mg/dL
- Glucose (terminal cancer patients; Patient 8, 40 mg/Kg, Study Day 33): 122 mg/dL
- Glucose (terminal cancer patients; Patient 8, 40 mg/Kg, Study Day 40): 67 mg/dL
- Glucose (terminal cancer patients; Patient 8, 40 mg/Kg, Study Day 47): 116 mg/dL
- Glucose (terminal cancer patients; Patient 8, 40 mg/Kg, Study Day 49): 122 mg/dL
- Glucose (terminal cancer patients; Patient 8, 40 mg/Kg, Study Day 54): 136 mg/dL
- Glucose (terminal cancer patients; Patient 8, 40 mg/Kg, Study Day 61): 102 mg/dL
- Glucose (terminal cancer patients; Patient 8, 40 mg/Kg, Study Day 69): 135 mg/dL
- Glucose (terminal cancer patients; Patient 9, 40 mg/Kg, Study Day 0): 118 mg/dL
- Glucose (terminal cancer patients; Patient 9, 40 mg/Kg, Study Day 1): 114 mg/dL
- Glucose (terminal cancer patients; Patient 9, 40 mg/Kg, Study Day 7): 73 mg/dL
- Glucose (terminal cancer patients; Patient 9, 40 mg/Kg, Study Day 9): 130 mg/dL
- Glucose (terminal cancer patients; Patient 9, 40 mg/Kg, Study Day 14): 151 mg/dL
- Glucose (terminal cancer patients; Patient 9, 40 mg/Kg, Study Day 17): 145 mg/dL
- Glucose (terminal cancer patients; Patient 9, 40 mg/Kg, Study Day 21): 156 mg/dL
- Glucose (terminal cancer patients; Patient 9, 40 mg/Kg, Study Day 25): 210 mg/dL
- Glucose (terminal cancer patients; Patient 9, 40 mg/Kg, Study Day 28): 151 mg/dL
- Glucose (terminal cancer patients; Patient 9, 40 mg/Kg, Study Day 33): 109 mg/dL
- Glucose (terminal cancer patients; Patient 9, 40 mg/Kg, Study Day 40): 128 mg/dL
- Glucose (terminal cancer patients; Patient 9, 40 mg/Kg, Study Day 47): 75 mg/dL
- Glucose (terminal cancer patients; Patient 9, 40 mg/Kg, Study Day 54): 145 mg/dL
- Glucose (terminal cancer patients; Patient 9, 40 mg/Kg, Study Day 61): 121 mg/dL
- Glucose (terminal cancer patients; Patient 9, 40 mg/Kg, Study Day 69): 89 mg/dL
- Glucose (terminal cancer patients; Patient 10, 40 mg/Kg, Study Day 0): 100 mg/dL
- Glucose (terminal cancer patients; Patient 10, 40 mg/Kg, Study Day 7): 156 mg/dL
- Glucose (terminal cancer patients; Patient 10, 40 mg/Kg, Study Day 9): 84 mg/dL
- Glucose (terminal cancer patients; Patient 10, 40 mg/Kg, Study Day 14): 123 mg/dL
- Glucose (terminal cancer patients; Patient 10, 40 mg/Kg, Study Day 17): 93 mg/dL
- Glucose (terminal cancer patients; Patient 10, 40 mg/Kg, Study Day 21): 106 mg/dL
- Glucose (terminal cancer patients; Patient 10, 40 mg/Kg, Study Day 25): 143 mg/dL
- Glucose (terminal cancer patients; Patient 10, 40 mg/Kg, Study Day 28): 91 mg/dL
- Glucose (terminal cancer patients; Patient 10, 40 mg/Kg, Study Day 40): 94 mg/dL
- Glucose (terminal cancer patients; Patient 10, 40 mg/Kg, Study Day 47): 100 mg/dL
- Glucose (terminal cancer patients; Patient 10, 40 mg/Kg, Study Day 54): 79 mg/dL
- Glucose (terminal cancer patients; Patient 10, 40 mg/Kg, Study Day 61): 92 mg/dL
- Glucose (terminal cancer patients; Patient 10, 40 mg/Kg, Study Day 69): 74 mg/dL
- Glucose (terminal cancer patients; Patient 11, 60 mg/Kg, Study Day 7): 141 mg/dL
- Glucose (terminal cancer patients; Patient 12, 60 mg/Kg, Study Day 7): 72 mg/dL
- Glucose (terminal cancer patients; Patient 13, 60 mg/Kg, Study Day 7): 48 mg/dL
- glucose response (terminal cancer patients; Patient (A), diabetic, 80 mg/Kg): did not seem to respond well
- clinical observation (terminal cancer patients; highest tested drug concentrations (80 and 100 mg/Kg)): became lethargic and hypoglycemic and required immediate intervention to revert glucose levels
- Glucose Levels (terminal cancer patients; lower tested drug concentrations): trend towards a drop in glucose levels shortly after drug administration
- glucose response (terminal cancer patients; several patients who were diabetic or had higher glucose levels than normal): did respond
- phosphorylation by creatine kinase (creatine kinase): phosphorylated efficiently
